# Read-outs that look alike come from different tables or passages of the source.
# Biological target: AChE (Homo sapiens, UniProt P22303)
# Assay: In vitro AChE inhibitory activity, Ellman's colorimetric method
# Type: biochemical
# Settings: for relative potency (%): AChE inhibitory potency relative to donepezil hydrochloride (100)
# [1] = in vitro AChE inhibition, mean ± standard error of the mean of three experiments
# Sequence of AChE (P22303 32-614): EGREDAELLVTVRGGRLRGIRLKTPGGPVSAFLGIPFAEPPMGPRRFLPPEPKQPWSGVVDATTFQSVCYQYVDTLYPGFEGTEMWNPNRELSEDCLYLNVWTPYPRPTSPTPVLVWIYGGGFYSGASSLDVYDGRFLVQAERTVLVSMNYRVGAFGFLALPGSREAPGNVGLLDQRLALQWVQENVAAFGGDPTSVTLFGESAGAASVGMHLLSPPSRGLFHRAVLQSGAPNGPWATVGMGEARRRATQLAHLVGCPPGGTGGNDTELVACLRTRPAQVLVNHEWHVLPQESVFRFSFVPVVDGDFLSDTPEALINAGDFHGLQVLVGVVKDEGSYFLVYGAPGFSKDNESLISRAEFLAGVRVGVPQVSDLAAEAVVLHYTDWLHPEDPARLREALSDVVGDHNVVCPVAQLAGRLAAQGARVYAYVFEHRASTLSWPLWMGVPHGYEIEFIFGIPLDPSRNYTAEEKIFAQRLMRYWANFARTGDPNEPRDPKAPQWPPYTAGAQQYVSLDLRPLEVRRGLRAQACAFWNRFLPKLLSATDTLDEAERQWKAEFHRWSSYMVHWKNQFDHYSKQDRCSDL
smiles,measurement,setting,value
"COc1ccc(-c2csc(NC3=NC(=O)C(=Cc4ccc(Br)s4)S3)n2)cc1 [Compound 21, 2-[4-(4-Methoxyphenylthiazol-2-yl)amino]-5-[(5-bromothiophen-2-yl)methylene]-4,5-dihydrothiazole-4-one]",relative potency (%),,29.28%
same,IC50,[1],0.188 ± 0.0051 µM
"COc1ccc(-c2csc(NC3=NC(=O)C(=Cc4ccc(Cl)cc4)S3)n2)cc1 [Compound 18, 2-[4-(4-Methoxyphenylthiazol-2-yl)amino]-5-(4-chlorobenzylidene)-4,5-dihydrothiazole-4-one]",relative potency (%),,28.43%
same,IC50,[1],0.193 ± 0.0053 µM
"COc1ccc(-c2csc(N3C(=O)C(=Cc4ccc(OC)c(OC)c4)SC3=NCc3ccccc3)n2)cc1 [Compound 32, 2-(Benzylimino)-5-(3,4-dimethoxybenzylidene)-3-[4-(4-methoxyphenyl)thiazol-2-yl]thiazolidin-4-one]",IC50,,0.45 ± 0.012 µM
"Cc1ccc(-c2csc(N3C(=O)CSC3=NCc3ccccc3)n2)cc1 [Compound 29, 2-Benzylimino-3-[4-(p-tolyl)thiazol-2-yl]thiazolidin-4-one]",IC50,,0.188 ± 0.0051 µM
"Cc1ccc(-c2csc(NC3=NC(=O)C(=Cc4ccc(Br)s4)S3)n2)cc1 [Compound 14, 2-[4-(p-Tolylthiazol-2-yl)amino]-5-[(5-bromothiophen-2-yl)methylene]-4,5-dihydrothiazole-4-one]",IC50,[1],0.38 ± 0.01 µM
"COc1ccc(-c2csc(NC3=NC(=O)C(=Cc4ccc(OC)c(OC)c4)S3)n2)cc1 [Compound 17, 2-[4-(4-Methoxyphenylthiazol-2-yl)amino]-5-(3,4-dimethoxybenzylidene)-4,5-dihydrothiazole-4-one]",relative potency (%),,31.26%
same,IC50,[1],0.176 ± 0.0048 µM
"Cc1ccc(C=C2SC(Nc3nc(-c4ccc(C)cc4)cs3)=NC2=O)cc1 [Compound 8, 2-[4-(p-Tolylthiazol-2-yl)amino]-5-(4-methylbenzylidene)-4,5-dihydrothiazole-4-one]",IC50,[1],0.501 ± 0.014 µM
"COc1ccc(-c2csc(N3C(=O)C(=Cc4ccc(Cl)cc4Cl)SC3=NCc3ccccc3)n2)cc1 [Compound 33, 2-(Benzylimino)-5-(2,4-dichlorobenzylidene)-3-[4-(4-methoxyphenyl)thiazol-2-yl]thiazolidin-4-one]",IC50,,0.188 ± 0.0051 µM
same,relative potency (%),,29.27%
"COc1ccc(-c2csc(N3C(=O)CSC3=NCc3ccccc3)n2)cc1 [Compound 31, 2-Benzylimino-3-[4-(4-methoxyphenyl)thiazol-2-yl]thiazolidin-4-one]",IC50,,0.152 ± 0.0041 µM
same,relative potency (%),,36.08%
"COc1ccc(-c2csc(NC3=NC(=O)C(=Cc4ccc(C)cc4)S3)n2)cc1 [Compound 15, 2-[4-(4-Methoxyphenylthiazol-2-yl)amino]-5-(4-methylbenzylidene)-4,5-dihydrothiazole-4-one]",IC50,[1],0.375 ± 0.01 µM
"Cc1ccc(-c2csc(NC3=NC(=O)C(=Cc4ccc(Cl)cc4Cl)S3)n2)cc1 [Compound 12, 2-[4-(p-Tolylthiazol-2-yl)amino]-5-(2,4-dichlorobenzylidene)-4,5-dihydrothiazole-4-one]",IC50,[1],0.336 ± 0.0091 µM
"CCN=C1SCC(=O)N1c1nc(-c2ccc(OC)cc2)cs1 [Compound 30, 2-Ethylimino-3-[4-(4-methoxyphenyl)thiazol-2-yl]thiazolidin-4-one]",IC50,,0.346 ± 0.0094 µM
"COc1ccc(-c2csc(NC3=NC(=O)C(=Cc4ccc(Cl)cc4Cl)S3)n2)cc1 [Compound 19, 2-[4-(4-Methoxyphenylthiazol-2-yl)amino]-5-(2,4-dichlorobenzylidene)-4,5-dihydrothiazole-4-one]",IC50,[1],0.731 ± 0.02 µM
"CCN=C1SCC(=O)N1c1nc(-c2ccc(C)cc2)cs1 [Compound 28, 2-Ethylimino-3-[4-(p-tolyl)thiazol-2-yl]thiazolidin-4-one]",IC50,,0.478 ± 0.013 µM
"COc1ccc(-c2csc(NC3=NC(=O)C(=Cc4cccs4)S3)n2)cc1 [Compound 20, 2-[4-(4-Methoxyphenylthiazol-2-yl)amino]-5-[(thiophen-2-yl)methylene]-4,5-dihydrothiazole-4-one]",IC50,[1],0.26 ± 0.0071 µM
